Assay results as given in patent publication US20230365589A1, “NOVEL AMINE DERIVATIVES” (Sumitomo Pharma Co., Ltd., priority 2020, published 2023).
Where two headings read alike, the source gives them in different places.

Key:
Assay type in all cases: biochemical
DYRK1A = biological target: T1, DYRK1A (Homo sapiens, UniProt Q13627); assay: Inhibition test on activity of DYRK family, mobility shift assay (MSA): DYRK1A
T1 construct: purchased Carna Biosciences, Inc. 04-130
Procedure, shortened: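 Mobility shift assay with recombinant DYRK1A (0.2 ng/μL enzyme solution), FITC-DYRKtide substrate (4 μM in substrate mix), 100 μM ATP in substrate mix, HEPES pH 7.5 buffer with MgCl2; 1 h at room temperature. Phosphorylated vs unphosphorylated peptide peaks quantified; IC50 from regression of inhibition rate against log concentration.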

DYRK1B = biological target: T2, DYRK1B (Homo sapiens, UniProt Q9Y463); assay: Inhibition test on activity of DYRK family, mobility shift assay (MSA): DYRK1B
T2 construct: purchased Carna Biosciences, Inc. 04-131
T2 sequence (Q9Y463 whole entry): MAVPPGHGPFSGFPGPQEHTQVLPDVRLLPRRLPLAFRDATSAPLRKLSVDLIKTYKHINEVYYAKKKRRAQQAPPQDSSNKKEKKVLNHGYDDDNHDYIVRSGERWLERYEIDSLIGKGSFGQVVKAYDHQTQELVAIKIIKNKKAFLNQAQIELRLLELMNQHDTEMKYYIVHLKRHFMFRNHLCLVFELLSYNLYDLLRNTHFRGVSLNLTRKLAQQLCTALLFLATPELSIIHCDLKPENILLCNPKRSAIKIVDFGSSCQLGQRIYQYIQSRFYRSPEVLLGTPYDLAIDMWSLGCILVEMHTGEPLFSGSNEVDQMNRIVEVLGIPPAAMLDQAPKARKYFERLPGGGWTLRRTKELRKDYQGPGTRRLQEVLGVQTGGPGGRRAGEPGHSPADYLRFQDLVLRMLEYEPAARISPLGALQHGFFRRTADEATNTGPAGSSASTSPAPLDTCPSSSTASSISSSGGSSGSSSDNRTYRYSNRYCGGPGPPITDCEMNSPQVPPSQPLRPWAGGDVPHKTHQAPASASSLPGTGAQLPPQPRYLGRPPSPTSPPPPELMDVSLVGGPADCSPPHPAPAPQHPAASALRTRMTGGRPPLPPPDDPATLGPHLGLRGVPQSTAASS
Description: [Inhibition Test on Activity of DYRK Family (DYRK1A, DYRK1B, DYRK2, and DYRK3)]
The kinase activity was measured by mobility shift assay (MSA) method using QuickScout Screening Assist™ MSA (commercially available kit manufactured by Carna Biosciences, Inc.). The substrate of the kinase reaction used was an FITC-labeled DYRKtide peptide included in the kit. An assay buffer [20 mM HEPES, 0.01% Triton X-100™, 2 mM dithiothreitol, pH 7.5]was used to create a substrate mixture solution with a substrate (4 μM), MgCl2(20 mM), and ATP (DYRK1A: 100 μM; DYRK1B: 200 μM; DYRK2: 40 μM; and DYRK3: 20 μM). In addition, kinases (DYRK1A: manufactured by Carna Biosciences, Inc., Cat. No. 04-130; DYRK1B: manufactured by Carna Biosciences, Inc., Cat. No. 04-131; DYRK2; manufactured by Carna Biosciences, Inc., Cat. No. 04-132; and DYRK3; manufactured by Carna Biosciences, Inc., Cat. No. 04-133) were diluted with the assay buffer to prepare enzyme solutions (DYRK1A: 0.2 ng/μL; DYRK1B: 0.08 ng/μL; DYRK2: 0.04 ng/μL; and DYRK3: 0.25 ng/μL). The 10 mM solution of the test compound in DMSO was further diluted with DMSO to 10 levels of the concentration (0.00003 mM, 0.0001 mM, 0.0003 mM, 0.001 mM, 0.003 mM, 0.01 mM, 0.03 mM, 0.1 mM, 0.3 mM, and 1 mM), each of which was subjected to 25-fold dilution with the assay buffer to obtain a drug solution (4% DMSO solution). 5 μL of the drug solution or a control solution (4% DMSO-assay buffer), 5 μL of the substrate mixture solution, and 10 μL of the enzyme solution were mixed in the wells of a polypropylene 384-well plate and allowed to react at room temperature for 1 hour, and then the reaction was quenched by adding 60 μL of the termination buffer included in the kit. Subsequently, the quantities of the substrates (S) and the phosphorylated substrate (P) in the reaction solution were measured using LabChip EZ Reader II system (manufactured by Caliper Life Sciences) according to the protocol of the assay kit.
The heights of the peaks of the “substrate” and the “phosphorylated substrate” were expressed as S and P, respectively, and a blank containing the assay buffer instead of the enzyme solution was also measured.
The inhibition rate (%) of the test compound was calculated according to the following equation:
Inhibition rate (%)=(1−(C−A)/(B−A))×100 • wherein, A, B, and C represent P/(P+S) of the blank well, P/(P+S) of the control solution well, and P/(P+S) of the compound-containing well, respectively.
The IC50 value was calculated via a regression analysis of the inhibition rate and the test compound concentration (logarithmic value).
The inhibiting activities of representative compounds of the present invention are shown against DYRK1A, DYRK1B, DYRK2, and DYRK3 in Tables.

DYRK2 = biological target: T3, DYRK2 (Homo sapiens, UniProt Q92630); assay: Inhibition test on activity of DYRK family, mobility shift assay (MSA): DYRK2
T3 construct: purchased Carna Biosciences, Inc. 04-132
T3 sequence (Q92630 74-601 limits assumed): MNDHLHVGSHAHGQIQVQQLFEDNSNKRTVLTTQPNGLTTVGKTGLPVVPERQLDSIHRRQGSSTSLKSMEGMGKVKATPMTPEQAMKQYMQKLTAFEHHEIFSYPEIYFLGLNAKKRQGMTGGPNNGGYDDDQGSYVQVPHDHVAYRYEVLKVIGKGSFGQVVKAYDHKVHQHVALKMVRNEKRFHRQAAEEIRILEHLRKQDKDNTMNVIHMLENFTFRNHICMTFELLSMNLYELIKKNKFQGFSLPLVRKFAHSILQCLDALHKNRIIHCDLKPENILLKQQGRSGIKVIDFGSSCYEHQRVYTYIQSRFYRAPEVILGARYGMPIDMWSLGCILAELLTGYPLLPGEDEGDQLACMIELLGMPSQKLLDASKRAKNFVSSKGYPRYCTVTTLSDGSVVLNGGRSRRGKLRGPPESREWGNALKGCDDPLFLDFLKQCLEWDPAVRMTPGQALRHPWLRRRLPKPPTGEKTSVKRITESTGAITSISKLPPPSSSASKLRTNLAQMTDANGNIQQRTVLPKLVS
Procedure, shortened: (§1)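 Mobility-shift readout of FITC-DYRKtide phosphorylation in 20 mM HEPES pH 7.5. The substrate mix held 4 µM peptide, 20 mM MgCl2 and ATP at 100 (1A), 200 (1B), 40 (2) or 20 µM (3). Reaction 1 h at room temperature; IC50 from regression of P/(P+S)-based inhibition vs log concentration.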

DYRK3 = biological target: T4, DYRK3 (Homo sapiens, UniProt O43781); assay: Inhibition test on activity of DYRK family, mobility shift assay (MSA): DYRK3
T4 construct: purchased Carna Biosciences, Inc. 04-133
T4 sequence (O43781 1-568 isoform O43781-2): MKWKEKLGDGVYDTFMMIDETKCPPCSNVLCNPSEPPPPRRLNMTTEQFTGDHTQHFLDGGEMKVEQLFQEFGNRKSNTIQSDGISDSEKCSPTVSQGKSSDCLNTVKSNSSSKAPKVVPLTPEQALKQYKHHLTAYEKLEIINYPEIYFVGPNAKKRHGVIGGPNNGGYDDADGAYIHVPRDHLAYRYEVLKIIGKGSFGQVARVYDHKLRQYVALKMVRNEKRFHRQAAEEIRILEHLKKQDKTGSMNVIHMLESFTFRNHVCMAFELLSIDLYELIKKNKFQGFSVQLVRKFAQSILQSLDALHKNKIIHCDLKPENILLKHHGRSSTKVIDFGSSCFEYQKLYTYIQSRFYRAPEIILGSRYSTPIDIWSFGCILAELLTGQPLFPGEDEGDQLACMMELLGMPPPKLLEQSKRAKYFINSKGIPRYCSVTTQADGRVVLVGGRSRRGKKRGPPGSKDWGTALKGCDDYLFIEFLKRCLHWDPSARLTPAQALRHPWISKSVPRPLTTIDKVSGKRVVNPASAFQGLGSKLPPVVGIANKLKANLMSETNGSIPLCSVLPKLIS
Procedure, shortened: as §1

[1] = read-out: Inhibitory activity DYRK 1A
[2] = read-out: Inhibitory activity DYRK 2
[3] = read-out: Inhibitory activity DYRK 3
[4] = MSA, FITC-labeled DYRKtide peptide, ATP 100 μM, read-out: Inhibitory activity DYRK 1A (IC50 class)
[5] = MSA, FITC-labeled DYRKtide peptide, ATP 200 μM, read-out: Inhibitory activity DYRK 1B (IC50 class)
[6] = MSA, FITC-labeled DYRKtide peptide, ATP 40 μM, read-out: Inhibitory activity DYRK 2 (IC50 class)
[7] = MSA, FITC-labeled DYRKtide peptide, ATP 20 μM, read-out: Inhibitory activity DYRK 3 (IC50 class)

Row | SMILES | IC50 (DYRK1A; [1]) | IC50 (DYRK1B; read-out: Inhibitory activity DYRK 1B) | IC50 (DYRK2; [2]) | IC50 (DYRK3; [3]) | IC50 (DYRK1A; [4]) | IC50 (DYRK1B; [5]) | IC50 (DYRK2; [6]) | IC50 (DYRK3; [7])
1 | O=C1N[C@H]2COCC[C@H]2N1c1nc2c3c(ccc2s1)OCC3 [Example 122, (3aR,7aR)-1-(7,8-dihydrofuro[3,2-e][1,3]benzothiazol-2-yl)hexahydropyrano[3,4-d]imidazol-2(3H)-one] | < 10 nM | < 10 nM | 100 to 1000 nM | 100 to 1000 nM |  |  |  | 
2 | C[C@H]1C[C@@H]2[C@H](CO1)NC(=O)N2c1nc2c3c(ccc2s1)OCC3 [Example 38, (3aR,6S,7aR)-1-(7,8-dihydrofuro[3,2-e][1,3]benzothiazol-2-yl)-6-methylhexahydropyrano[3,4-d]imidazol-2(3H)-one] |  |  |  |  | < 10 nM | < 10 nM | 100 to 1000 nM | 100 to 1000 nM
3 | N#CC[C@H]1OC[C@@H]2NC(=O)N(c3nc4c5c(ccc4s3)OCC5)[C@@H]21 [Example 162, [(3aS,4R,6aR)-3-(7,8-Dihydrofuro[3,2-e][1,3]benzothiazol-2-yl)-2-oxohexahydro-1H-furo[3,4-d]imidazol-4-yl]acetonitrile] |  |  |  |  |  | 10 to 100 nM | 100 to 1000 nM | 100 to 1000 nM
4 | O=C1N[C@@H]2CCN(C3CC3)C[C@@H]2N1c1nc2c3c(ccc2s1)OCCO3 (relative stereo) [Example 31, cis-5-Cyclopropyl-3-(7,8-dihydro[1,4]dioxino[2,3-e][1,3]benzothiazol-2-yl)octahydro-2H-imidazo[4,5-c]pyridin-2-one] |  |  |  |  | < 10 nM |  | ≥ 1000 nM | ≥ 1000 nM
5 | O=C1N[C@@H]2[C@@H](CO[C@@H]2CO)N1c1nc2c3c(ccc2s1)OCC3 [Example 153] |  |  |  |  | 10 to 100 nM |  | 100 to 1000 nM | 100 to 1000 nM
6 | O=C1N[C@H]2CCN(C3COC3)C[C@H]2N1c1nc2c3c(ccc2s1)OCCO3 (racemic) [Example 80, rac-(3aR,7aS)-3-(7,8-dihydro[1,4]dioxino[2,3-e][1,3]benzothiazol-2-yl)-5-(oxetan-3-yl)octahydro-2H-imidazo[4,5-c]pyridin-2-one] |  |  |  |  | 10 to 100 nM |  | ≥ 1000 nM | ≥ 1000 nM
7 | O=C1N[C@H]2CC3(CC3)NC[C@H]2N1c1nc2c3c(ccc2s1)OCC3 [Example 57] |  |  |  |  | 100 to 1000 nM |  | ≥ 1000 nM | 100 to 1000 nM
8 | O=C1N[C@H]2CCCN(C3COC3)C[C@H]2N1c1nc2c3c(ccc2s1)OCO3 (racemic) [Example 86, rac-(3aR,8aS)-3-(2H-[1,3]dioxolo[4,5-e][1,3]benzothiazol-7-yl)-5-(oxetan-3-yl)octahydroimidazo[4,5-c]azepin-2(1H)-one] |  |  |  |  | 10 to 100 nM |  | ≥ 1000 nM | ≥ 1000 nM
9 | O=C1N[C@H]2CCNC[C@H]2N1c1nc2c3c(ccc2s1)OCC3 (relative stereo) [Example 1, cis-3-(7,8-Dihydrofuro[3,2-e][1,3]benzothiazol-2-yl)octahydro-2H-imidazo[4,5-c]pyridin-2-one] |  |  |  |  | 10 to 100 nM |  | ≥ 1000 nM | 100 to 1000 nM
10 | C[C@@H]1[C@@H]2NC(=O)N(c3nc4c5c(ccc4s3)OCC5)[C@@H]2CCN1C [Example 97] | 100 to 1000 nM |  | ≥ 1000 nM | ≥ 1000 nM |  |  |  | 
11 | O=C1N[C@@H]2COCC[C@H]2N1c1nc2c3c(ccc2s1)OCC3 [Example 126] | 100 to 1000 nM |  | 100 to 1000 nM | 100 to 1000 nM |  |  |  | 
12 | N#C[C@H]1C[C@@H]2[C@H](CO1)NC(=O)N2c1nc2c3c(ccc2s1)OCCO3 [Example 133, (3aR,6R,7aR)-1-(7,8-dihydro[1,4]dioxino[2,3-e][1,3]benzothiazol-2-yl)-2-oxooctahydropyrano[3,4-d]imidazole-6-carbonitrile] |  |  |  |  | < 10 nM |  | 100 to 1000 nM | 100 to 1000 nM
13 | O=C1N[C@H]2CO[C@H](CO)[C@H]2N1c1nc2c3c(ccc2s1)OCC3 [Example 157, (3aR,6S,6aS)-1-(7,8-dihydrofuro[3,2-e][1,3]benzothiazol-2-yl)-6-(hydroxymethyl)tetrahydro-1H-furo[3,4-d]imidazol-2(3H)-one] |  |  |  |  |  | 10 to 100 nM | 100 to 1000 nM | 100 to 1000 nM
14 | CN1CC(N2CC[C@@H]3NC(=O)N(c4nc5c6c(ccc5s4)OCC6)[C@@H]3C2)C1 [Example 83] |  |  |  |  | 100 to 1000 nM |  | ≥ 1000 nM | 100 to 1000 nM
15 | O=C1NC2CCNCC2N1c1nc2c3c(ccc2s1)OCO3 (centres unmarked) [Example 30] |  |  |  |  | 10 to 100 nM |  | ≥ 1000 nM | ≥ 1000 nM
16 | O=C1N[C@H]2CN(C3CC3)C[C@H]2N1c1nc2c3c(ccc2s1)OCC3 [Example 101] | 10 to 100 nM |  | ≥ 1000 nM | ≥ 1000 nM |  |  |  | 
17 | O=C1N[C@H]2CCN(CC(F)F)C[C@H]2N1c1nc2c3c(ccc2s1)OCC3 (racemic) [Example 108, rac-(3aR,7aS)-5-(2,2-difluoroethyl)-3-(7,8-dihydrofuro[3,2-e][1,3]benzothiazol-2-yl)octahydro-2H-imidazo[4,5-c]pyridin-2-one] | 10 to 100 nM |  | ≥ 1000 nM | ≥ 1000 nM |  |  |  | 
18 | CN1C[C@@H]2NC(=O)N(c3nc4c5c(ccc4s3)OCC5)[C@@H]2CC12CC2 [Example 89] |  |  |  |  | 100 to 1000 nM |  | ≥ 1000 nM | ≥ 1000 nM
